Assay results taken from patent publication US20100210534A1, “USE OF A PEPTIDE AS A THERAPEUTIC AGENT” (priority 2007, published 2010).
No end group written: not given here.

What was measured:
HIV-1IIIB = assay: HIV-1 antiviral assay in CEM-SS cells (MTS readout of virus-induced cell killing); format: cell-based
HCMV strain AD169 = assay: HCMV plaque formation assay in MRC-5 cells; settings: for inhibition of HCMV plaque formation as compared to the virus control: 10 micrograms per ml, 7-10 days
HUVEC = assay: Endothelial tube formation assay; settings: 10 micrograms per ml, 20 hours, combination peptide 1: peptide 2 0.95 mole: 1.05 mole
Description: The endothelial tube formation assay is based on the ability of endothelial cells to form three-dimensional capillary-like tubular structures when cultured on a gel of basement membrane extract. […] Pre-labeled HUVEC with Calcein AM were seeded in a 96-well culture plate coated with extracellular metrix (Chemicon international Cat. ECM625) and treated with test peptides—10 micrograms per ml—in full growth medium. Positive control was vehicle only. The endothelial cells were allowed to form tubes foe 20 hours and were then examined under an inverted fluorescent microscope. Duplicate wells for each treatment were photographed and quantitatevily analyzed for an average tubule length using image analysis software ImageProPlus. Raw data were expressed as average tubule lenghs in pixels±standard deviation. Statistic p values were computed using the Student's t-test.

[1] = test system: Primary Human endothelial cells (HUVEC); assay: Endothelial cell migration assay; settings: 10 micrograms per ml, 22 hours, combination peptide 1: peptide 2 0.95 mole: 1.05 mole
Description: Primary Human endothelial cells (HUVEC) were seeded in insert chambers with 3 micrometer pore size of multi-transwell plate for 6 hours at 37° C. in Endothelial Cell Basal Medium (EBM) supplemented with 0.1% bovine serum albumin. Thereafter, designated concentration of testing peptides—10 micrograms per ml—was added in duplicate wells. The endothelia were allowed to migrate for 22 hours at 37° C., then, migrated cells were fixed and stained with Hoechst 33342 dye. Images of 3 fields per insert were taken and the number of migrated cells per field were quantified using the ImageProPlus software. Data were analyzed for the average number of the migrated cells and standard deviation of six data points for each treatment condition. […] Statistic p values were computed using the Student's t-test.

[2] = test system: hepatitis B virus (HBV) ayw strain; assay: HBV assay in HepG2-2.2.15 cells (secreted HBV DNA by TaqMan PCR); format: cell-based; settings: 10 micrograms per ml, six days, HBV DNA in supernatant
[3] = test system: spleen cells of Ovalbumin-immunized Balb/c mice; assay: Th1/Th2 cytokine profiling assay (Ovalbumin-restimulated spleen cells, CBA kit); settings: 10 micrograms per ml; Ovalbumin restimulation, 72 hours
Excerpt: The Balb/c mice (originated in 1923, it is a popular strain and is used in many different research disciplines. Also classified as an inbred from the production of 20 or more successive brother-sister matings, the Balb/c mouse is albino and small in size) were immunized on Days 1, 15, and 29 with Ovalbumin (Ovalbumin is the main protein found in egg white, commonly used to stimulate an immunological reaction in test animals) in PBS (5 micrograms/injection). On day 50, spleens of the mice were harvested (3 weeks after last boost with Ovalbumin). […] Thereafter, additional Ovalbumin was added to the cells at 10 micrograms/ml for in vitro restimulation of the cells. 72 hours later, cell supernatants were harvested and assayed using the Becton Dickinson Mouse Th1/Th2 Cytokine CBA Kit.

| Molecule | antiviral activity of positive control compounds (HIV-1) (HIV-1IIIB) | antiviral activity of positive control compound (HCMV) (HCMV strain AD169; positive control, HCMV AD169) | inhibition of the tube formation endothelial cells (HUVEC) | inhibition of the migration of human endothelial cells [1] | inhibition of HCMV plaque formation as compared to the virus control (HCMV strain AD169) | inhibition of HBV replication as compared to the virus control infection [2] [%] | IFNγ spleen cells; TH1 response (% of control) [3] | IL-2 spleen cells (% of control) [3] | IL-4 spleen cells; TH2 response (% of control) [3] | IL-5 spleen cells; TH2 response (% of control) [3] | TNF-a spleen cells; TH1 response (% of control) [3] |
| --- | --- | --- | --- | --- | --- | --- | --- | --- | --- | --- | --- |
| Cc1cn([C@H]2C[C@H](N=[N+]=[N-])[C@@H](CO)O2)c(=O)[nH]c1=O [AZT] | expected levels of antiviral activity |  |  |  |  |  |  |  |  |  |  |
| Nc1nc(O)c2ncn(COC(CO)CO)c2n1 [Ganciclovir, reference compound] |  | expected levels of antiviral activity |  |  |  |  |  |  |  |  |  |
| CC(C)(C)NC(=O)[C@@H]1CN(Cc2cccnc2)CCN1C[C@@H](O)C[C@@H](Cc1ccccc1)C(=O)N[C@H]1c2ccccc2C[C@H]1O [indinavir] | expected levels of antiviral activity |  |  |  |  |  |  |  |  |  |  |
| Ala-Ala-Val-Ala-Leu-Leu-Pro-Ala-Val-Leu-Leu-Ala-Leu-Leu-Ala-Pro-Val-Gln-Arg-Lys-Arg-Gln-Lys-Leu-Met-Pro-OH (AAVALLPAVLLALLAPVQRKRQKLMP-OH) [Peptide 1] |  |  | did not inhibit | did not inhibit | did not inhibit | 40.7 | 63.7 % of control | 153.6 % of control | 118.2 % of control | 74.6 % of control | 108.5 % of control |
| Arg-Val-Tyr-Ile-His-Pro-Phe-OH (RVYIHPF-OH) [Peptide 2] |  |  | 3% | did not inhibit | did not inhibit | 44.1 | 126.8 % of control | 119.1 % of control | 117.2 % of control | 69.6 % of control | 106.3 % of control |
